Measurements: patent publication US9546158B2, “2,5-substituted pyrimidines” (Grünenthal GmbH, priority 2014, dated 2017)

Key:
[1] = target: T1, human PDE4B1 (Homo sapiens, UniProt Q07343); experiment: TR-FRET assay using the LANCE Ultra cAMP kit to determine the activity of hPDE4B1; type: biochemical; conditions: test substrate concentration of 10 μM, read-out: Inhibition of PDE4B, Inhibition in %
T1 construct: host or cells: Sf9 cells
Text: TR-FRET Assay Using the LANCE® Ultra cAMP Kit to Determine the Activity of hPDE4B1
The effects of the compounds on the activity of the human PDE4B1 was quantified by measuring the production of 5′AMP from cAMP using a human recombinant enzyme expressed in Sf9 cells and the LANCE® Ultra cAMP kit, a TR-FRET detection method from PerkinElmer. The human PDE4B1 enzyme was purchased from SignalChem Lifesciences (Catalog #P92-31BG, Lot #H296-2).
The test compound, reference compound or water (control) was mixed with the enzyme (0.96 U) in a reaction buffer containing 50 mM Tris-HCl, 50 mM MgCl2 and 5 mM DTT (pH 8.5). Thereafter, the reaction was initiated by addition of 500 nM cAMP (substrate) and the mixture was incubated for 30 minutes at room temperature. For control basal measurements, the enzyme was omitted from the reaction mixture. After 30 minutes, the reaction was stopped and diluted by a factor of 100 with the reaction buffer supplemented with 500 μM IBMX. The fluorescence donor (europium chelate-labeled cAMP) and the fluorescence acceptor (anti-cAMP antibody labeled with the ULight™ dye) were then added together with 500 μM IBMX to a 10 μl aliquot. After 60 minutes, the fluorescence transfer corresponding to the amount of residual cAMP was measured at λex=337 nm, λem=620 nm and λem=665 nm using a microplate reader (PHERAstar, BMG). The enzyme activity was determined by dividing the signal measured at 665 nm by that measured at 620 nm (ratio) multiplied by 10000. The results were expressed as percent inhibition of the control enzyme activity. IC50 values (IC50=concentration causing a half-maximal inhibition of control specific activity) were derived from dose response measurements with ten different concentrations (n=3; N=1-3).

T1 sequence (Q07343 whole entry): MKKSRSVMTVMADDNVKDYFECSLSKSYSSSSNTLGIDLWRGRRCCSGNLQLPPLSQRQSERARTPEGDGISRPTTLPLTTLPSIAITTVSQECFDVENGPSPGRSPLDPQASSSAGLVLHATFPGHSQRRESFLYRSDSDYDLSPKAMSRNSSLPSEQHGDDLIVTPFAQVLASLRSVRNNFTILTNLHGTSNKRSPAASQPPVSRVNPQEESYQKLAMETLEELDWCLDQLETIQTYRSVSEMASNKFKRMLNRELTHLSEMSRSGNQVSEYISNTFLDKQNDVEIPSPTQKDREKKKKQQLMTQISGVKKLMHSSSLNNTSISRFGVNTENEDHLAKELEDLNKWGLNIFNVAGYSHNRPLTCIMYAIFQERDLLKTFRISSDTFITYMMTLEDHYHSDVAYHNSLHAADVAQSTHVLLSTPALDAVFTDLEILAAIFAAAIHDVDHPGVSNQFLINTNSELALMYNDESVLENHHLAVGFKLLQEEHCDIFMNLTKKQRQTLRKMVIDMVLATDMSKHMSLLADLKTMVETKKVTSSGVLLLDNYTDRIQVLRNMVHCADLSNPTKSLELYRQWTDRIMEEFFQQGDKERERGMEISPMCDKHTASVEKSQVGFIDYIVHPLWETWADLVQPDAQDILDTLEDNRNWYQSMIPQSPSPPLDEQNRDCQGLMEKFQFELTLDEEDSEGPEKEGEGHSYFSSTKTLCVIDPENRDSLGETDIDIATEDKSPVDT

inhibition at 10 µM [1]: 103%
melting point: 191 to 195 °C
SMILES: Cc1nn(-c2ncc(-c3cc(C(C)O)ccc3F)cn2)c2cc(C(=O)N(C)CC(N)=O)ccc12 (centres unmarked) [Compound No. 61, N-(2-Amino-2-oxoethyl)-1-(5-(2-fluoro-5-(1-hydroxyethyl)phenyl)pyrimidin-2-yl)-N,3-dimethyl-1H-indazole-6-carboxamide]
